# Columns and labels:
# IL-1β mRNA = assay: Real-time PCR of IL-1β mRNA in suture-induced inflamed corneas; format: in vivo, mice; details: 24 h and 72 h after suture placement; vs vehicle-treated controls
# Method: (§1) FIG. 3. Lipoxin Reduces Cytokine mRNA Expressions in Inflamed Corneas. ATLa or vehicle was subconjunctivally injected at 0 h and 48 h after suture placement. For each compound treatment, corneas were harvested from a group of mice at 24 h, and another group at 72 h after suture placement, as well as from normal untreated control corneas (6 corneas per group). mRNA levels of inflammatory cytokines (including IL-1α, IL-1β, and TNF-α) were determined by real-time PCR. Data were normalized to GAPDH mRNA and values were expressed as the fold change over normal control corneas. Results represent the mean (±SEM) of three samples per group (each sample consisted of 2 pooled corneas), and data are representative of two independent experiments (*P<0.05, **P<0.001 vs vehicle-treated group, t-test). […]
# (§2) BALB/c mice were randomized to receive ATLa, or vehicle (normal saline) by subconjunctival injection in a masked fashion after suture or hydron pellet placement. […] ATLa was synthesized as described previously.^20 The physical properties were monitored routinely via LC/MS/MS matching the reported biological and physical properties prior to analysis in present experiments. […]
# mouse IL-1 beta = assay: ELISA of IL-1 beta protein in homogenates of suture-induced inflamed corneas; format: in vivo, mice
# Method: FIG. 7. ATLa Regulates IL-1β. Mice were treated at Oh and 48 h after suture-placement with ATLa or vehicle. Whole corneas were excised at 72 h, and subsequently freeze-thawed 3 times. Cornea was then homogenized using a pellet pestile motor with additional protease inhibitors. Homogenates were centrifuged at 12,000 rpm for 5 minutes and the supernatant was assayed for mouse IL-1 beta via ELISA (eBioscience, USA) according to the manufacturer's instructions.
# The standard model for induction of inflammatory corneal NV is associated with development of intrastromal vessels in close association with a mixed-cell (primarily neutrophilic) infiltrate.^14,15 Three interrupted sutures (11-0 nylon, Sharpoint; Vanguard, Houston, Tex.) were placed intrastromally with two stromal incursions extending over 120° of the corneal circumference each to induce inflammatory corneal NV, which is also associated with significant LA, as described previously.^14 The corneas were followed by slit-lamp biomicroscopy for corneal NV development. […]
# (§3) BALB/c mice were randomized to receive ATLa, or vehicle (normal saline) by subconjunctival injection in a masked fashion after suture or hydron pellet placement. […] ATLa was synthesized as described previously.^20 The physical properties were monitored routinely via LC/MS/MS matching the reported biological and physical properties prior to analysis in present experiments.
# [1] = tested on: VEGF-A-induced corneal HA and LA; assay: Corneal micropocket assay with VEGF-A pellets (vessel density); format: in vivo, mice; details: VEGF-A micropellet, day 7
# Method: (§4) FIG. 6. ATLa Regulate IL-1β- and VEGF-A-induced Corneal HA and LA. Hydron pellets containing IL-1β or VEGF-A were implanted into the corneas on day 0. ATLa or vehicle was subconjunctivally injected every 48 h from 0 to 7 days after pellet implantation (4 corneas per treatment, for each pellet-type). A. Slit-lamp examination was performed on day 7 and representative images are shown. B. The density of blood vessels (CD31^high/LYVE-1^−) or lymphatic vessels (CD31^lowLYVE-1^high) covering each cornea was analyzed. Values are expressed as the mean (±SEM) of each treatment group (4 corneas per group) and the data are representative of two independent experiments (*P<0.05 vs vehicle-treated group, t-test).
# (§5) The corneal micropocket assay in mice and quantification of the resultant NV has been described previously.^16,17 In brief, 0.3 μl of hydron pellets (IFN Sciences, New Brunswick, N.J.) containing 30 ng of murine IL-1β (R&D Systems, Minneapolis, Minn.) or 200 ng of VEGF-A (gift from BRB Preclinical Repository, National Cancer Institute) were prepared and implanted into the corneal stroma of male BALB/c mice. After 7 days the animals were sacrificed and the corneas were harvested for quantitative analysis of HA and LA.
# (§6) BALB/c mice were randomized to receive ATLa, or vehicle (normal saline) by subconjunctival injection in a masked fashion after suture or hydron pellet placement. […]
# VEGF-C mRNA = assay: Real-time PCR of VEGF-C mRNA in suture-induced inflamed corneas; format: in vivo, mice; details: 24 h and 72 h after suture placement; vs vehicle-treated group
# Method: (§7) FIG. 4. The Impact of Lipoxin on the mRNA Expression of VEGFs and VEGFRs in Inflamed Corneas. ATLa or vehicle was subconjunctivally injected at 0 h and 48 h after suture placement. For each compound treatment, corneas were harvested from a group of mice at 24 h, and another group at 72 h after suture placement, as well as from normal untreated control corneas (6 corneas per group). (A) VEGF ligand species (VEGF-A, VEGF-C, VEGF-D) and (B) VEGFRs (VEGFR2 and VEGFR3) were tested by real-time PCR and normalized to GAPDH mRNA. Values are expressed as fold change over the normal control cornea. Results represent the mean (±SEM) of three samples per group (each sample consisted of 2 pooled corneas), and the data are representative of two independent experiments (*P<0.05, **P<0.001, ***P<0.0005, vs vehicle-treated group, t-test). […]
# as §2
# VEGFR-2 mRNA = assay: Real-time PCR of VEGFR-2 mRNA in suture-induced inflamed corneas; format: in vivo, mice; details: 24 h and 72 h after suture placement; vs vehicle-treated group
# Method: as §7, §2
# [2] = tested on: macrophage phagocytosis (e.g. of apoptotic neutrophils); details: reference 26; cited from earlier work
# neutrophils = assay: Neutrophil infiltration in suture-induced inflamed corneas (NIMP-R14 staining of cross-sections); format: in vivo, mice; details: for neutrophils per section: n=3, mean±SEM
# Method: (§8) ATLa or vehicle was subconjunctivally injected at 0 h and 48 h after suture placement. For each compound treatment, eyes were enucleated from a group of mice at 24 h, and another group at 72 h after suture placement (3 eyes per group). Cross-sections were stained with anti-neutrophil (NIMP-R14) or anti-macrophage (F4/80) Ab, and 12 sections were used to enumerate the respective leukocyte populations. Results represent the mean (±SEM) of 3 eyes per group (*P<0.05, **P<0.001 vs vehicle-treated group, t-test), and data are representative of two independent experiments.
# The standard model for induction of inflammatory corneal NV is associated with development of intrastromal vessels in close association with a mixed-cell (primarily neutrophilic) infiltrate.^14,15 Three interrupted sutures (11-0 nylon, Sharpoint; Vanguard, Houston, Tex.) were placed intrastromally with two stromal incursions extending over 120° of the corneal circumference each to induce inflammatory corneal NV, which is also associated with significant LA, as described previously.^14 The corneas were followed by slit-lamp biomicroscopy for corneal NV development. NV was graded between 0 and 3, with increments of 0.5, using a grid system per each corneal quadrant based on the centripetal extent of the neovascular branches from the limbus. Scores for each quadrant then summed to derive the NV index (range 0 to 12) for each eye, as previously described.^14
# as §3
# (§9) Full thickness corneal tissue or 8 μm-frozen sections were fixed in acetone for 15 minutes at room temperature. […] Finally, the samples were covered with mounting medium (Vector Laboratories, Burlingame, Calif.) and analyzed by epifluorescence microscopy (Eclipse E800; Nikon, Tokyo, Japan). […]
# TNF-α mRNA = assay: Real-time PCR of TNF-α mRNA in suture-induced inflamed corneas; format: in vivo, mice; details: vs vehicle
# Method: as §1, §2
# [3] = tested on: IL-1β-induced corneal HA and LA; assay: Corneal micropocket assay with IL-1β pellets (vessel density); format: in vivo, mice; details: IL-1β micropellet, day 7
# Method: as §4, §5, §6
# VEGF-A mRNA = assay: Real-time PCR of VEGF-A mRNA in suture-induced inflamed corneas; format: in vivo, mice; details: 24 h and 72 h after suture placement; vs vehicle-treated group
# Method: as §7, §2
# VEGF-D mRNA = assay: Real-time PCR of VEGF-D mRNA in suture-induced inflamed corneas; format: in vivo, mice; details: after suture placement; vs vehicle-treated controls
# Method: as §7, §2
# EC = details: cited from earlier work
# macrophages = assay: Macrophage infiltration in suture-induced inflamed corneas (F4/80 staining of cross-sections); format: in vivo, mice; details: 72 h after suture placement
# Method: as §8, with “experiments. […]” for “experiments.”
# as §3, §9
# [4] = stable analog of LXA4/ATL; reference 36; cited from earlier work
# [5] = tested on: suture-induced corneal NV (HA and LA); assay: Suture-induced inflammatory corneal angiogenesis (slit-lamp NV score, blood and lymphatic vessel density); format: in vivo, mice
# Method: FIG. 5. Suture-induced Corneal HA is Reduced with Lipoxin. ATLa or vehicle was subconjunctivally injected every 48 h from 0 to 14 days after suture placement. A. In a masked fashion, corneal NV was scored biomicroscopically with a slit-lamp using a grid system. Values are expressed as the mean (±SEM) of 6 corneas. B. Whole corneal tissues were harvested on day 14 and double-stained with anti-CD31 (green) and anti-LYVE-1 (red) for epifluorescence microscopy (20× magnification). C. The density of blood vessels (CD31^high/LYVE-1^−) or lymphatic vessels (CD31^lowLYVE-1^high) covering the cornea was analyzed. Values are expressed as the mean (±SEM) of 6 corneas of per treatment group (**P<0.001 vs vehicle-treated group, t-test), and the data are representative of two independent experiments. […]
# as §3, §9
# To quantify corneal angiogenesis, digital pictures of corneal flat-mounts were taken using an image analysis system (Spot Image Analysis, Diagnostic Instruments, Sterling Heights, Mich.). The areas covered by CD31^high/LYVE-1^−-vessels (blood vessels) or CD31^lowLYVE-1^high vessels (lymphatics) were measured morphometrically using NIH Image J software (version 1.34s; http://rsb.info.nih.gov/ij). […]
# VEGFR-3 mRNA = assay: Real-time PCR of VEGFR-3 mRNA in suture-induced inflamed corneas; format: in vivo, mice; details: after suture placement; vs vehicle-treated controls
# Method: as §7, §2
# IL-1α mRNA = assay: Real-time PCR of IL-1α mRNA in suture-induced inflamed corneas; format: in vivo, mice; details: 24 h and 72 h after suture placement; vs vehicle
# Method: as §1, §2
structure (smiles),measurement,setting,value
"COC(=O)CCC[C@H](O)[C@H](O)/C=C/C=C/C=C\C=C\[C@H](O)COc1ccc(F)cc1 [ATLa, 15-epi-16-(para-fluoro)-phenoxy-lipoxin A4 methyl ester]",reduction in the increase of IL-1β expression levels (mRNA),IL-1β mRNA,more than 50%
same,IL-1 beta in corneas,"mouse IL-1 beta; ELISA of corneal homogenate supernatant, 72 h, treated at 0 h and 48 h, n=4",21.3 ± 0.8 pg/mL
same,decrease in IL-1β protein level,"mouse IL-1 beta; ELISA, 72 h after suture placement, vs vehicle-treated group",70%
same,BV density,"[1]; n=4, mean±SEM",5.9±0.4%
same,LA stimulated by VEGF-A,[1]; vs vehicle,no significant reduction
same,VEGF-C mRNA expression,VEGF-C mRNA,lower
same,VEGFR-2 mRNA expression,VEGFR-2 mRNA,lower
same,macrophage phagocytosis,[2],increase
same,inhibition of neutrophils recruitment into the inflamed corneas,"neutrophils; 24 and 72 h after suture placement, 100 ng/10 μl subconjunctival at 0 h and 48 h, vs vehicle",~30%
same,neutrophils per section,neutrophils; 24 h after suture placement,53±1 cells/section
same,neutrophils per section,neutrophils; 72 h after suture placement,34±5 cells/section
same,increase in TNF-α expression (mRNA),TNF-α mRNA; 24 h after suture placement,significantly suppressed
same,increase in TNF-α expression (mRNA),TNF-α mRNA; 72 h after suture placement,not at 72 h
same,BV density,"[3]; n=4, mean±SEM",16.1±3.0%
same,LA stimulated by IL-1β,[3]; vs vehicle,no significant reduction
same,VEGF-A mRNA expression,VEGF-A mRNA,lower
same,VEGF-D mRNA expression,VEGF-D mRNA,not significantly altered
same,EC adhesion,"EC; VEGF-A-induced angiogenesis, references 37, 38",inhibition
same,VEGF-A-induced EC proliferation,EC; reference 39,suppression
same,macrophages per section,"macrophages; n=3, mean±SEM",46±5 cells/section
same,reduction in macrophage infiltration,macrophages; vs vehicle control group,25-40%
same,local inactivation (stability),[4],resists local inactivation
same,"angiogenic response (growth of corneal neovessels, slit lamp biomicroscopy)","[5]; 2-week time course, injection every 48 h, vs vehicle control",significant suppression
same,BV density (CD31high/LYVE-1−),"[5]; day 14 after suture placement, n=6, mean±SEM",8.26±0.63%
same,density of lymphatic vessels (CD31low LYVE-1high),"[5]; day 14 after suture placement, vs vehicle controls",not observed
same,VEGFR-3 mRNA expression,VEGFR-3 mRNA,not significantly altered
same,expression of IL-1α (mRNA),IL-1α mRNA,not significantly altered
